Reference: patent publication US20250101025A1, “NOVEL PLK1 DEGRADATION INDUCING COMPOUND” (UPPTHERA, INC., priority 2021, published 2025)
pIC50: −log10 of the molar value. Read-outs that look alike come from different tables or passages of the source.

What was measured:
Type in all cases: cell-based
H526 cell line = experiment: Cell viability assay for NCI-H526 cell line (EZ-Cytox); conditions: Homo sapiens, NCI-H526, 120 h; H526 cells, 3-fold dilutions 3000 nM to 0.46 nM, 5 days
Protocol: (1) Culture of NCI-H526 Cell Line
(2) Treatment of Compounds of the Present Invention and Method of Cell Viability Assay
After treating the compound to each well to make the total volume of 200 μL, it was cultured in a CO2 incubator (Thermo Fisher Science, Cat. No. 4111) for 5 days.
The absorbance of the completely cultured sample was measured by setting the wavelength of a plate reader (BMG Labtech, CLARIOstar Plus) to […], and was measured after shaking for 3 minutes in a plate reader before measurement.
In Table 3, Activity represents IC50 value of each Exemplary Compound treatment group to H526 cell line (A: <30 nM, B: <50 nM, C: <100 nM, D: <200 nM, E: <400 nM).

PLK1 = target: T1, PLK1 (Homo sapiens, UniProt P53350); experiment: Luciferase assay for PLK1 in HeLa LgBit (Plk1-HiBit KI) cell line; conditions: compound 300 nM, luminescence after 9 hours
T1 construct: endogenous in cells; host or cells: HeLa LgBit (Plk1-HiBit KI): HeLa stably expressing LgBit, with HiBit knocked in at the endogenous Plk1 locus by CRISPR/Cas9
T1 sequence (P53350 whole entry): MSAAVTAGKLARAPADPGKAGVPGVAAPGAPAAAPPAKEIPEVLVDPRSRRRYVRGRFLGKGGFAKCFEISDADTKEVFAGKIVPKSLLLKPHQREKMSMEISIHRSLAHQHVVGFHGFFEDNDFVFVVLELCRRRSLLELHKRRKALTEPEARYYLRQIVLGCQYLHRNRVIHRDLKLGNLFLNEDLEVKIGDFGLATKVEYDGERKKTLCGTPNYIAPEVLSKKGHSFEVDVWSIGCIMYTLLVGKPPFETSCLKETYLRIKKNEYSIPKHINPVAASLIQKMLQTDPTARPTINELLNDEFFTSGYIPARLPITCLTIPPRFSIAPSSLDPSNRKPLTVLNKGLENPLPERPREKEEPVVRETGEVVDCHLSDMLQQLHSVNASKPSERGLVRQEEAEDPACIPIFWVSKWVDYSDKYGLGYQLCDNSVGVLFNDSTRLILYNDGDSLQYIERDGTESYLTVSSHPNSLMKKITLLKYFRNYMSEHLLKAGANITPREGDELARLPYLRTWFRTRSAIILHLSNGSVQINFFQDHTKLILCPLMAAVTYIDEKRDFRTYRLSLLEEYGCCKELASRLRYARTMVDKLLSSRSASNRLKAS
Protocol: 2. Luciferase Assay for PLK1
(1) Preparation and Culture of HeLa LgBit (Plk1-HiBit KI) Cell Line
A HeLa cell line in which the LgBit vector was transfected and expressed stably was prepared. Then, after constructing gRNA and donor to express the HiBit amino acid sequence behind the C-terminal of the Plk1 gene, which was inherent in the cell, it was inserted into the cell together with a vector capable of expressing CRISPR/Cas9. Only the cells in which the insertion was completed and knock-in had progressed were selected, sub-cultured and used.
(2) Treatment of Compounds of the Present Invention and Method of Luciferase Assay
In the case of HeLa LgBit (Plk1-HiBit KI), the compounds were treated after being released after thymidine block, and the process was as follows. Thymidine (Sigma-Aldrich Cat. No. T9250-5G) was completely dissolved in DW and used in the experiment. For thymidine block, the products were treated with 2 mM of thymidine and then incubated for 24 hours. For release and chemical treatment, the medium was suctioned and washed with 1×PBS. TrypLE™ was added and incubated in 37° C. CO2 incubator for 5 min. Cells neutralized by adding complete media were counted through a counter. For each well of a 96-well culture plate (SPL), 3.3×10^4 cells and a total medium volume of 150 μL were seeded and incubated in a CO2 incubator.
Each cell line was incubated in a CO2 incubator for 18 hours, and Endurazine was added to each well to make up 4% of the total volume. After adding the compound of the present invention in a 96-well white plate (SPL) to a concentration of 300 nM, the wavelength of the plate reader (BMG Labtech, CLARIOstar Plus) was set to […], and then the luminescence was tracked in real time.
In Table 2, Activity represents the ratio of the luminescence value of each Exemplary Compound treatment group to DMSO treatment group (+++: <0.3, ++<0.6, +<0.7).

MRC-5 cell line = experiment: Cell viability assay for MRC-5 cell line (EZ-Cytox cytotoxicity experiment); conditions: Homo sapiens, MRC5, 120 h, MRC-5 normal cell line, 5 days; for pIC50: highest concentration 10000 nM, N.D. = no cytotoxicity until 10 μM, read-out: Activity: IC50 value to MRC-5 cell line, N.D. cells
Protocol: 4. Cell Viability Assay for MRC-5 Cell Line
(1) Culture of MRC-5 Cell Line
Passage of cultured cells was maintained within P15.
(2) Treatment of Compounds of the Present Invention
Then, it was cultured in 37° C.
(3) Cytotoxicity Experiment
CO2 incubator for 4 hours.

COc1cc(C(=O)NC2CCN(C(=O)CCN3CCN(c4cccc(N(C)C5CCC(=O)NC5=O)c4)CC3)CC2)ccc1Nc1ncc2c(n1)N(C1CCCC1)CC(F)(F)C(=O)N2C (centres unmarked) [Compound 15, 4-((9-cyclopentyl-7,7-difluoro-5-methyl-6-oxo-6,7,8,9-tetrahydro-5H-pyrimido[4,5-b][1,4]diazepin-2-yl)amino)-N-(1-(3-(4-(3-((2,6-dioxopiperidin-3-yl)(methyl)amino)phenyl)piperazin-1-yl)propanoyl)piperidin-4-yl)-3-methoxybenzamide]
pIC50 (H526 cell line): > 7.30
Activity: ratio of the luminescence value of each Exemplary Compound treatment group to DMSO treatment group (PLK1): ++ (++<0.6)
pIC50 (MRC-5 cell line): < 5.00

COc1cc(C(=O)NC2CC3(CCN(CC4CCN(c5c(F)cc(N(C)C6CCC(=O)NC6=O)cc5F)CC4)CC3)C2)ccc1Nc1ncc2c(n1)N(C(C)C)CC(F)(F)C(=O)N2C (centres unmarked) [Compound 29, 4-((7,7-difluoro-9-isopropyl-5-methyl-6-oxo-6,7,8,9-tetrahydro-5H-pyrimido[4,5-b][1,4]diazepin-2-yl)amino)-N-(7-((1-(4-((2,6-dioxopiperidin-3-yl)(methyl)amino)-2,6-difluorophenyl)piperidin-4-yl)methyl)-7-azaspiro[3.5]nonan-2-yl)-3-methoxybenzamide]
pIC50 (H526 cell line): > 7.30
Activity: ratio of the luminescence value of each Exemplary Compound treatment group to DMSO treatment group (PLK1): ++ (++<0.6)
IC50 (MRC-5 cell line; 3-fold dilutions 10000 nM to 1.52 nM, Exemplary Compounds, numeric values, read-out: Activity: IC50 value (nM) to MRC-5 cell line): 18500 nM

COc1cc(C(=O)NN2CCC(CCN3CCN(c4cccc(C(=O)NC5CCC(=O)NC5=O)c4)CC3)CC2)ccc1Nc1ncc2c(n1)N(C1CCCC1)CC(F)(F)C(=O)N2C (centres unmarked) [Compound 10, 4-((9-cyclopentyl-7,7-difluoro-5-methyl-6-oxo-6,7,8,9-tetrahydro-5H-pyrimido[4,5-b][1,4]diazepin-2-yl)amino)-N-(4-(2-(4-(3-((2,6-dioxopiperidin-3-yl)carbamoyl)phenyl)piperazin-1-yl)ethyl)piperidin-1-yl)-3-methoxybenzamide]
pIC50 (H526 cell line): > 7.52
Activity: ratio of the luminescence value of each Exemplary Compound treatment group to DMSO treatment group (PLK1): ++ (++<0.6)
pIC50 (MRC-5 cell line): < 5.00

COc1cc(C(=O)NN2CCC(N3CC4(CCN(c5ccc(N(C)C6CCC(=O)NC6=O)cc5)CC4)C3)CC2)ccc1Nc1ncc2c(n1)N(C(C)C)CC(F)(F)C(=O)N2C (centres unmarked) [Compound 31, 4-((7,7-difluoro-9-isopropyl-5-methyl-6-oxo-6,7,8,9-tetrahydro-5H-pyrimido[4,5-b][1,4]diazepin-2-yl)amino)-N-(4-(7-(4-((2,6-dioxopiperidin-3-yl)(methyl)amino)phenyl)-2,7-diazaspiro[3.5]nonan-2-yl)piperidin-1-yl)-3-methoxybenzamide]
pIC50 (H526 cell line): > 7.00
Activity: ratio of the luminescence value of each Exemplary Compound treatment group to DMSO treatment group (PLK1): ++ (++<0.6)

COc1cc(C(=O)NN2CCC(CCN3CCN(c4ccc(N(C)C5CCC(=O)NC5=O)cc4F)CC3)CC2)ccc1Nc1ncc2c(n1)N(C1CCCC1)CC(F)(F)C(=O)N2C (centres unmarked) [Compound 23, 4-((9-cyclopentyl-7,7-difluoro-5-methyl-6-oxo-6,7,8,9-tetrahydro-5H-pyrimido[4,5-b][1,4]diazepin-2-yl)amino)-N-(4-(2-(4-(4-((2,6-dioxopiperidin-3-yl)(methyl)amino)-2-fluorophenyl)piperazin-1-yl)ethyl)piperidin-1-yl)-3-methoxybenzamide]
pIC50 (H526 cell line): > 7.52
Activity: ratio of the luminescence value of each Exemplary Compound treatment group to DMSO treatment group (PLK1): +++ (+++: <0.3)
pIC50 (MRC-5 cell line): < 5.00

COc1cc(C(=O)NC2CC3(CCN(CC4CCN(c5ccc6c(N7CCC(=O)NC7=O)nn(C)c6c5)CC4)CC3)C2)ccc1Nc1ncc2c(n1)N(C1CCCC1)CC(F)(F)C(=O)N2C [Compound 40, 4-((9-cyclopentyl-7,7-difluoro-5-methyl-6-oxo-6,7,8,9-tetrahydro-5H-pyrimido[4,5-b][1,4]diazepin-2-yl)amino)-N-(7-((1-(3-(2,4-dioxotetrahydropyrimidin-1 (2H)-yl)-1-methyl-1H-indazol-6-yl)piperidin-4-yl)methyl)-7-azaspiro[3.5]nonan-2-yl)-3-methoxybenzamide]
pIC50 (H526 cell line): > 7.52

COc1cc(C(=O)NN2CCC(CCN3CCN(c4cccc(C(=O)NC5CCC(=O)NC5=O)c4)CC3)C2)ccc1Nc1ncc2c(n1)N(C1CCCC1)CC(F)(F)C(=O)N2C (centres unmarked) [Compound 11, 4-((9-cyclopentyl-7,7-difluoro-5-methyl-6-oxo-6,7,8,9-tetrahydro-5H-pyrimido[4,5-b][1,4]diazepin-2-yl)amino)-N-(3-(2-(4-(3-((2,6-dioxopiperidin-3-yl)carbamoyl)phenyl)piperazin-1-yl)ethyl)pyrrolidin-1-yl)-3-methoxybenzamide]
pIC50 (H526 cell line): > 7.52
Activity: ratio of the luminescence value of each Exemplary Compound treatment group to DMSO treatment group (PLK1): ++ (++<0.6)
pIC50 (MRC-5 cell line): < 5.00

COc1cc(C(=O)NC2CC3(CCN(CC4CCN(c5ccc(N(C)C6CCC(=O)NC6=O)cc5)CC4)CC3)C2)ccc1Nc1ncc2c(n1)N(C(C)C)CC(F)(F)C(=O)N2C (centres unmarked) [Compound 27, 4-((7,7-difluoro-9-isopropyl-5-methyl-6-oxo-6,7,8,9-tetrahydro-5H-pyrimido[4,5-b][1,4]diazepin-2-yl)amino)-N-(7-((1-(4-((2,6-dioxopiperidin-3-yl)(methyl)amino)phenyl)piperidin-4-yl)methyl)-7-azaspiro[3.5]nonan-2-yl)-3-methoxybenzamide]
pIC50 (H526 cell line): > 7.52
Activity: ratio of the luminescence value of each Exemplary Compound treatment group to DMSO treatment group (PLK1): +++ (+++: <0.3)

COc1cc(C(=O)NC2CCN(C(=O)CCN3CCN(c4ccc(C(=O)NC5CCC(=O)NC5=O)cc4)CC3)CC2)ccc1Nc1ncc2c(n1)N(C1CCCC1)CC(F)(F)C(=O)N2C (centres unmarked) [Compound 4, 4-((9-cyclopentyl-7,7-difluoro-5-methyl-6-oxo-6,7,8,9-tetrahydro-5H-pyrimido[4,5-b][1,4]diazepin-2-yl)amino)-N-(1-(3-(4-(4-((2,6-dioxopiperidin-3-yl)carbamoyl)phenyl)piperazin-1-yl)propanoyl)piperidin-4-yl)-3-methoxybenzamide]
Activity: ratio of the luminescence value of each Exemplary Compound treatment group to DMSO treatment group (PLK1): + (+<0.7)

COc1cc(C(=O)NN2CCC(N3CC4(CCN(c5cccc6c5n(C)c(=O)n6C5CCC(=O)NC5=O)CC4)C3)CC2)ccc1Nc1ncc2c(n1)N(C(C)C)CC(F)(F)C(=O)N2C (centres unmarked) [Compound 41, 4-((7,7-difluoro-9-isopropyl-5-methyl-6-oxo-6,7,8,9-tetrahydro-5H-pyrimido[4,5-b][1,4]diazepin-2-yl)amino)-N-(4-(7-(1-(2,6-dioxopiperidin-3-yl)-3-methyl-2-oxo-2,3-dihydro-1H-benzo[d]imidazol-4-yl)-2,7-diazaspiro[3.5]nonan-2-yl)piperidin-1-yl)-3-methoxybenzamide]
Activity: ratio of the luminescence value of each Exemplary Compound treatment group to DMSO treatment group (PLK1): + (+<0.7)

COc1cc(C(=O)NC2CCN(C(=O)CCN3CCN(c4ccc(C(=O)NC5CCC(=O)NC5=O)nc4)CC3)CC2)ccc1Nc1ncc2c(n1)N(C1CCCC1)CC(F)(F)C(=O)N2C (centres unmarked) [Compound 7, 5-(4-(3-(4-(4-((9-cyclopentyl-7,7-difluoro-5-methyl-6-oxo-6,7,8,9-tetrahydro-5H-pyrimido[4,5-b][1,4]diazepin-2-yl)amino)-3-methoxybenzamido)piperidin-1-yl)-3-oxopropyl)piperazin-1-yl)-N-(2,6-dioxopiperidin-3-yl)picolinamide]
Activity: ratio of the luminescence value of each Exemplary Compound treatment group to DMSO treatment group (PLK1): + (+<0.7)
